Target: T1, Androgen receptor (Homo sapiens, UniProt P10275)
T1 sequence (P10275 whole entry): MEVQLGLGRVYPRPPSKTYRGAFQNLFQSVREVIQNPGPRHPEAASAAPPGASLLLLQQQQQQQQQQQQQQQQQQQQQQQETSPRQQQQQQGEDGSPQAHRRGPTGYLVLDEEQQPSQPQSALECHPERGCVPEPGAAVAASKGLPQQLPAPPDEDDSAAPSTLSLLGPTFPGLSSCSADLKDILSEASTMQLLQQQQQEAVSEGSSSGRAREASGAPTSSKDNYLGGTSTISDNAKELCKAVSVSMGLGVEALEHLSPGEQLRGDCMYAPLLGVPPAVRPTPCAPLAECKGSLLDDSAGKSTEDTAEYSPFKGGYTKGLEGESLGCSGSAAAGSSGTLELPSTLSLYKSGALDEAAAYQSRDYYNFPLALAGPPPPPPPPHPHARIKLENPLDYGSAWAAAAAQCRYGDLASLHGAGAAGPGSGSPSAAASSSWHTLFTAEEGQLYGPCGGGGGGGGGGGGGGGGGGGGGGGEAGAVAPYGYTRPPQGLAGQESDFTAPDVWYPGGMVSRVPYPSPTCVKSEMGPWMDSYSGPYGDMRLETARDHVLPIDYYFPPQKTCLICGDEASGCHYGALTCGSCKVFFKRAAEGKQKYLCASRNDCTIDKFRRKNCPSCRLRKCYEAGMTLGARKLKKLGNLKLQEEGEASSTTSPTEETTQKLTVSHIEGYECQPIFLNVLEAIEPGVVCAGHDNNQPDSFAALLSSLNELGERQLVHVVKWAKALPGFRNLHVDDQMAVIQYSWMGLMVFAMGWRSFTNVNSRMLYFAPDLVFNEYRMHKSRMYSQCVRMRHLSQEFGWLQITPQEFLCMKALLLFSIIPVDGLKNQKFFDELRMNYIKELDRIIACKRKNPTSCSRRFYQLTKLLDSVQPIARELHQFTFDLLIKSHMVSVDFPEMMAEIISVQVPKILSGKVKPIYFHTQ
Description: Inhibition of human androgen receptor at 10e-12 to 10e-5 M

SMILES	IC50 [nM]
CC1=CC(C)(C)Nc2ccc3c(c21)/C(=C/c1ccsc1)Oc1ccc(F)cc1-3	215
CC1=CC(C)(C)Nc2ccc3c(c21)/C(=C/c1ccccc1)Oc1c(F)cccc1-3	900

Reference: ChEMBL document CHEMBL1145087 (J Med Chem, 2003)
